Common to all, as to test: In vitro antibacterial activity, concentrations required for 50% inhibition
Type in all cases: cell-based

Assay [1] deals with Bacillus subtilis Leo KA3. Conditions: LEOKA3. The text has this: (§1) Now, however, it has been found, that the compounds of the present invention both in vitro and in vivo show interesting antimicrobial and pharmacokinetic properties. Thereby the compounds of the invention can be used in the treatment of bacterial infections in humans and animals.
The test system of assay [2] is Bacteroides fragilis Leo JA2. Conditions: LEOJA2.
Text: as §1

Assay [3] concerns Staph. aureus Leo CC 178B. Conditions: Staphylococcus aureus, LEOCC178B.
Text: as §1

Another assay deals with Strep. pyogenes Leo EC. Conditions: Streptococcus pyogenes.
Text: as §1

The next assay relates to Strep. species Leo EG2.
Text: as §1

Each structure is given as a SMILES string. ≈ marks a conversion by molar mass, not a printed value.

As for `CC(C)=CCC/C(C(=O)O)=C1/[C@@H](SC(C)C)C[C@@]2(C)[C@H]1C[C@@H](O)[C@H]1[C@@]3(C)CC[C@@H](O)[C@@H](C)[C@@H]3CC[C@@]12C` [Example 1, 16-Deacetoxy-16β-isopropylthiofusidic acid], the IC50 in assay [1] was 0.02 µg/mL (≈ 0.0375 µM); in assay [2], 5 µg/mL (≈ 9.38 µM); in assay [3] it was 0.032 µg/mL (≈ 0.0601 µM); in the assay with Strep. pyogenes Leo EC, 0.2 µg/mL (≈ 0.375 µM); in the assay with Strep. species Leo EG2, 1 µg/mL (≈ 1.88 µM).

Consider `CC(C)CCC/C(C(=O)O)=C1/[C@@H](SC(C)C)C[C@@]2(C)[C@H]1C[C@@H](O)[C@H]1[C@@]3(C)CC[C@@H](O)[C@@H](C)[C@@H]3CC[C@@]12C` [Example 11, 16-Deacetoxy-16β-isopropylthio-24,25-dihydrofusidic acid], for which the IC50 in assay [1] was 0.008 µg/mL (≈ 0.015 µM); in assay [2], 4 µg/mL (≈ 7.48 µM); in assay [3], 0.016 µg/mL (≈ 0.0299 µM); with Strep. pyogenes Leo EC, 0.04 µg/mL (≈ 0.0748 µM); with Strep. species Leo EG2, 0.1 µg/mL (≈ 0.187 µM).

In the case of `CC(C)=CCC/C(C(=O)O)=C1/[C@@H](SC(C)C)C[C@@]2(C)[C@H]1CC(=O)[C@H]1[C@@]3(C)CC[C@@H](O)[C@@H](C)[C@@H]3CC[C@@]12C` [Example 32, 11-Keto-16-deacetoxy-16β-isopropylthiofusidic acid], the IC50 came out at 0.02 µg/mL (≈ 0.0377 µM) in assay [1]; 3.2 µg/mL (≈ 6.03 µM) in assay [2]; 0.02 µg/mL (≈ 0.0377 µM) in assay [3]; 0.2 µg/mL (≈ 0.377 µM) with Strep. pyogenes Leo EC; 0.63 µg/mL (≈ 1.19 µM) in the assay on Strep. species Leo EG2.

Consider `CC(C)CCC/C(C(=O)O)=C1/[C@@H](SC(C)C)C[C@@]2(C)[C@H]1CC(=O)[C@H]1[C@@]3(C)CC[C@@H](O)[C@@H](C)[C@@H]3CC[C@@]12C` [Example 33, 11-Keto-16-deacetoxy-16β-isopropylthio-24,25-dihydrofusidic acid], for which the IC50 in assay [1] turned out to be 0.05 µg/mL (≈ 0.0938 µM); in assay [2], 2 µg/mL (≈ 3.75 µM); in assay [3] it was 0.04 µg/mL (≈ 0.0751 µM); with Strep. pyogenes Leo EC it was 0.32 µg/mL (≈ 0.601 µM); in the assay on Strep. species Leo EG2, 0.79 µg/mL (≈ 1.48 µM).

On to `CC(C)=CCC/C(C(=O)O)=C1/[C@@H](SC(C)C)C[C@@]2(C)[C@H]1C[C@@H](O)[C@H]1[C@@]3(C)CCC(=O)[C@@H](C)[C@@H]3CC[C@@]12C` [Example 34, 3-Keto-16-deacetoxy-16β-isopropylthiofusidic acid], for which the IC50 in assay [1] worked out at 0.05 µg/mL (≈ 0.0942 µM); in assay [2] it was 5 µg/mL (≈ 9.42 µM); in assay [3], 0.04 µg/mL (≈ 0.0754 µM); with Strep. pyogenes Leo EC, 0.4 µg/mL (≈ 0.754 µM); in the assay on Strep. species Leo EG2, 1 µg/mL (≈ 1.88 µM).

For the molecule `CC(C)=CCC/C(C(=O)O)=C1/[C@@H]([S+]([O-])C(C)C)C[C@@]2(C)[C@H]1C[C@@H](O)[C@H]1[C@@]3(C)CC[C@@H](O)[C@@H](C)[C@@H]3CC[C@@]12C` (stereo partly drawn) [Example 35, 16-deacetoxy-16β-isopropylsulfinylfusidic acid], the IC50 in assay [1] turned out to be 0.4 µg/mL (≈ 0.729 µM); in assay [2], 1.3 µg/mL (≈ 2.37 µM); in assay [3], 0.05 µg/mL (≈ 0.0911 µM); in the assay on Strep. pyogenes Leo EC it was 0.2 µg/mL (≈ 0.364 µM); in the assay with Strep. species Leo EG2, 0.32 µg/mL (≈ 0.583 µM).

Take `CC(C)CCC/C(C(=O)O)=C1/[C@@H]([S+]([O-])C(C)C)C[C@@]2(C)[C@H]1C[C@@H](O)[C@H]1[C@@]3(C)CC[C@@H](O)[C@@H](C)[C@@H]3CC[C@@]12C` (stereo partly drawn) [Example 42, 16-Deacetoxy-16β-isopropylsulfinyl-24,25-dihydrofusidic acid]: the IC50 in assay [1] was determined as 0.16 µg/mL (≈ 0.29 µM); in assay [2], 1.6 µg/mL (≈ 2.9 µM); in assay [3], 0.04 µg/mL (≈ 0.0726 µM); in the assay on Strep. pyogenes Leo EC it was 0.16 µg/mL (≈ 0.29 µM); with Strep. species Leo EG2, 0.5 µg/mL (≈ 0.908 µM).

As for `CCO[C@H]1C[C@@]2(C)[C@@H](C[C@@H](O)[C@H]3[C@@]4(C)CC[C@@H](O)[C@@H](C)[C@@H]4CC[C@@]32C)/C1=C(\CCC=C(C)C)C(=O)O` [Example 46, 16-Deacetoxy-16β-ethoxyfusidic acid], the IC50 was 0.05 µg/mL (≈ 0.0995 µM) in assay [1]; 1 µg/mL (≈ 1.99 µM) in assay [2]; 0.025 µg/mL (≈ 0.0497 µM) in assay [3]; 1 µg/mL (≈ 1.99 µM) in the assay on Strep. pyogenes Leo EC; 5 µg/mL (≈ 9.95 µM) with Strep. species Leo EG2.

Turning to `CC(C)=CCC/C(C(=O)O)=C1/[C@@H](OCC(F)(F)F)C[C@@]2(C)[C@H]1C[C@@H](O)[C@H]1[C@@]3(C)CC[C@@H](O)[C@@H](C)[C@@H]3CC[C@@]12C` [Example 48, 16-deacetoxy-16β-(2',2',2'-trifluoroethoxy)fusidic acid], the concentration for half-maximal inhibition (IC50) in assay [1] is 0.02 µg/mL (≈ 0.0359 µM); in assay [2] it was 32 µg/mL (≈ 57.5 µM); in assay [3] it was 0.016 µg/mL (≈ 0.0287 µM); with Strep. pyogenes Leo EC, 0.5 µg/mL (≈ 0.898 µM); in the assay with Strep. species Leo EG2 it was 1 µg/mL (≈ 1.8 µM).

`CC(C)=CCC/C(C(=O)O)=C1/[C@@H](OCCF)C[C@@]2(C)[C@H]1C[C@@H](O)[C@H]1[C@@]3(C)CC[C@@H](O)[C@@H](C)[C@@H]3CC[C@@]12C` [Example 50, 16-Deacetoxy-16β-(2'-fluoroethoxy)fusidic acid]: the IC50 came out at 0.05 µg/mL (≈ 0.096 µM) in assay [1]; 0.32 µg/mL (≈ 0.615 µM) in assay [2]; 0.02 µg/mL (≈ 0.0384 µM) in assay [3]; 0.63 µg/mL (≈ 1.21 µM) in the assay with Strep. pyogenes Leo EC; 2.5 µg/mL (≈ 4.8 µM) in the assay on Strep. species Leo EG2.

Regarding `CC(C)=CCC/C(C(=O)O)=C1/[C@@H](OC(CF)CF)C[C@@]2(C)[C@H]1C[C@@H](O)[C@H]1[C@@]3(C)CC[C@@H](O)[C@@H](C)[C@@H]3CC[C@@]12C` [Example 52], the IC50 in assay [1] turned out to be 0.04 µg/mL (≈ 0.0724 µM); in assay [2], 0.63 µg/mL (≈ 1.14 µM); in assay [3], 0.025 µg/mL (≈ 0.0452 µM); with Strep. pyogenes Leo EC it was 0.5 µg/mL (≈ 0.905 µM); in the assay on Strep. species Leo EG2, 3.2 µg/mL (≈ 5.79 µM).

For the molecule `CCO[C@H]1C[C@@]2(C)[C@@H](CC(=O)[C@H]3[C@@]4(C)CC[C@@H](O)[C@@H](C)[C@@H]4CC[C@@]32C)/C1=C(\CCC=C(C)C)C(=O)O` [Example 75, 11-Keto-16-deacetoxy-16β-ethoxyfusidic acid], the IC50 in assay [1] came out at 0.05 µg/mL (≈ 0.0999 µM); in assay [2], 13 µg/mL (≈ 26 µM); in assay [3] it was 0.02 µg/mL (≈ 0.0399 µM); in the assay with Strep. pyogenes Leo EC, 1 µg/mL (≈ 2 µM); in the assay with Strep. species Leo EG2, 3.2 µg/mL (≈ 6.39 µM).

In the case of `CC(C)=CCC/C(C(=O)O)=C1/[C@@H](OCCF)C[C@@]2(C)[C@H]1CC(=O)[C@H]1[C@@]3(C)CC[C@@H](O)[C@@H](C)[C@@H]3CC[C@@]12C` [Example 76, 11-Keto-16-deacetoxy-16β-(2'-fluoroethoxy)fusidic acid], the IC50 came out at 0.032 µg/mL (≈ 0.0617 µM) in assay [1]; 2 µg/mL (≈ 3.86 µM) in assay [2]; 0.025 µg/mL (≈ 0.0482 µM) in assay [3]; 1.6 µg/mL (≈ 3.08 µM) with Strep. pyogenes Leo EC; 4 µg/mL (≈ 7.71 µM) in the assay with Strep. species Leo EG2.

For the molecule `CC(=O)O[C@H]1C[C@@]2(C)[C@@H](C[C@@H](O)[C@H]3[C@@]4(C)CC[C@@H](O)[C@@H](C)[C@@H]4CC[C@@]32C)/C1=C(\CCC=C(C)C)C(=O)O` [Fusidic acid, reference compound], the IC50 in assay [1] stood at 0.2 µg/mL (≈ 0.387 µM); in assay [2], 1.6 µg/mL (≈ 3.1 µM); in assay [3], 0.032 µg/mL (≈ 0.0619 µM); with Strep. pyogenes Leo EC, 0.79 µg/mL (≈ 1.53 µM); in the assay with Strep. species Leo EG2, 1.6 µg/mL (≈ 3.1 µM).

Source of the values: US4060606A (Leo Pharmaceutical Products Ltd. A/S, priority 1976, dated 1977).
